Legend:
[1] = molecular target: T1, sucrose transporter from spinach (Spinacia oleracea, UniProt Q03411); assay: Competition experiment with various sugars as competitor for the labelled sucrose in yeast YEplac112A1NE-S21; assay type: cell-based; details: in relation to YEplac112A1NE-S21 control = 100; for activity at 2000 µM: 2mM competitor; for activity at 2000 µM / activity at 10000 µM: read-out: sucrose transport (%)
T1 construct: which contain, as inserts, the cDNA for the sucrose transporter from spinach; expressed in transfected cells; host or cells: Saccharomyces cerevisiae YSH2.64-1A suc- with integrated potato sucrose synthase (susy), transformed with YEplac112A1NE-S21
T1 sequence (Q03411 1-525): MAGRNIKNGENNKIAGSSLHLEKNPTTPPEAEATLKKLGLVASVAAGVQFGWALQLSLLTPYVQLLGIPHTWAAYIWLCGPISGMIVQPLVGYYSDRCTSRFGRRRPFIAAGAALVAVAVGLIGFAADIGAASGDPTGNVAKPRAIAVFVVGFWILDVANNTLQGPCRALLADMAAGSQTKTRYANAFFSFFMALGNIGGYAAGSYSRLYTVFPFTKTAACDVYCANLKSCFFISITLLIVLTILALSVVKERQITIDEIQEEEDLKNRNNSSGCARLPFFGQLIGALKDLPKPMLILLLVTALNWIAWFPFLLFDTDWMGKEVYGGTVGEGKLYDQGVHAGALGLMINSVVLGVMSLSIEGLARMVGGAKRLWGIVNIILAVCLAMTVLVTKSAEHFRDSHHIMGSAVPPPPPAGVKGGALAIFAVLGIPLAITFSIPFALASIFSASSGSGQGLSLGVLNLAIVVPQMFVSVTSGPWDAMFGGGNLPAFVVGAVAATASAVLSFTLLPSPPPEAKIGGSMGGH
Procedure: The yeast transformand YEplac112A1NE-S21, corresponding to that obtained in Example 2, was grown in liquid medium until the culture had reached the logarithmic phase. After centrifuging the culture, the cells were subjected to a pre-incubation for 5 minutes in a glucose containing medium and then taken up in a medium containing ^14 C-labelled sucrose. The uptake of the labelled sucrose was measured by the process described by Cirillo (1989, Meth Enzymol 174: 617-622). The uptake of the labelled sucrose without preincubation with glucose was compared with that with co-incubation with the inhibitors carbonyl cyanide m-chlorophenylhydrazone(CCCP), p-chloromercuribenzenesulfonic acid (PCMBS) and antimycin. The calculated reduction of the sucrose uptake by the inhibitors is shown in table I. A competition experiment with various sugars as competitor for the labelled sucrose, from which the specificity of the transporter can be read off, is shown in table II.

[2] = molecular target: T1, sucrose transporter from spinach; assay: cell-based
Procedure: Time pattern of the uptake of sucrose in yeast cells. "pmol/mg cells"=amount of the ^14 C-labelled sucrose in pmol taken up in relation to the moisture weight of the yeast cells per mg; "112"=starting strain (without transporter); "+Glucose"=pre-incubation of the cells in a medium of 10 mM glucose; "-Glucose"=no pre-incubation of the cells; […], carbonyl cyanide m-chlorophenylhydrazone (CCCP) in a concentration of 2.5 μM; […] p-chloromercuribenzenesulfonicacid (PCMBS) in a concentration of 500 μM; […] antimycin in a concentration of 10 μM.
After centrifuging the culture, the cells were subjected to a pre-incubation for 5 minutes in a glucose containing medium and then taken up in a medium containing ^14 C-labelled sucrose. The uptake of the labelled sucrose was measured by the process described by Cirillo (1989, Meth Enzymol 174: 617-622). The uptake of the labelled sucrose without preincubation with glucose was compared with that with co-incubation with the inhibitors carbonyl cyanide m-chlorophenylhydrazone(CCCP), p-chloromercuribenzenesulfonic acid (PCMBS) and antimycin.

[3] = tested on: sucrose transport through the membrane; details: plasma membranes; Slone & Buckhout, 1991; cited from earlier work
[4] = read-out: sucrose transport (%)

Molecule `OC[C@H]1O[C@@H](O[C@H]2[C@H](O)[C@@H](O)C(O)O[C@@H]2CO)[C@H](O)[C@@H](O)[C@H]1O` (some centres unmarked) [lactose] has an activity at 2000 µM [1] of 91%.

`OC[C@H]1O[C@H](O[C@H]2O[C@H](CO)[C@@H](O)[C@H](O)[C@H]2O)[C@H](O)[C@@H](O)[C@@H]1O` [trehalose] gave an activity at 10000 µM ([1]; 10mM competitor) of 103%.

In the case of `OC[C@H]1O[C@H](OC[C@H]2OC(O)(CO)[C@@H](O)[C@@H]2O)[C@H](O)[C@@H](O)[C@@H]1O` (some centres unmarked) [palatinose], the “sucrose transport (%)” value ([1]; 10mM competitor) is reported as 102%.

In the case of antimycin A, the “sucrose transport (%)” value ([2]; 10μM inhibitor, in relation to YEplac112A1NE-S21 control = 100) is reported as 59%.

In the case of `N#CC(C#N)=NNc1cccc(Cl)c1` [CCCP, carbonyl cyanide m-chlorophenylhydrazone], the activity at 0.5 µM ([2]; 0.5μM inhibitor, in relation to YEplac112A1NE-S21 control = 100, read-out: sucrose transport (%)) is reported as 65% and the activity at 2.5 µM ([2]; 2.5μM inhibitor, in relation to YEplac112A1NE-S21 control = 100, read-out: sucrose transport (%)) is reported as 21%.

For `O=[As]([O-])([O-])O.[Na+].[Na+]` [sodium arsenate], the “sucrose transport (%)” value ([2]; 1mM inhibitor, in relation to YEplac112A1NE-S21 control = 100) was 34%.

`O=[N+]([O-])c1ccc(O)c([N+](=O)[O-])c1` [2,4-DNP, 2,4dinitrophenol] showed an activity at 25 µM [2, 4] of 61% and an activity at 100 µM [2, 4] of 9%.

`O=C(CCc1ccc(O)cc1)c1c(O)cc(O)cc1O[C@@H]1O[C@H](CO)[C@@H](O)[C@H](O)[C@H]1O` [phloridzin] gave an activity at 2000 µM [1] of 16%.

For `OC[C@H]1O[C@@](CO)(O[C@H]2O[C@H](CO)[C@@H](O)[C@H](O)[C@H]2O)[C@@H](O)[C@@H]1O` [sucrose], the activity at 2000 µM [1] is given as 28% and the Km [3] is given as ~1000 µM.

With `O=S(=O)(O)c1cc[c]([Hg][Cl])cc1` [PCMBS, p-chloromercuribenzenesulfonic acid] the “sucrose transport (%)” value ([2]; 25μM inhibitor, in relation to YEplac112A1NE-S21 control = 100) was 73% and the “sucrose transport (%)” value ([2]; 100μM inhibitor, in relation to YEplac112A1NE-S21 control = 100) was 21%.

With `OC[C@H]1OC(Oc2ccccc2)[C@H](O)[C@@H](O)[C@@H]1O` (some centres unmarked) [phenylglucoside] the activity at 2000 µM [1] was 7%.

Molecule `OC[C@H]1O[C@H](O[C@H]2[C@H](O)[C@@H](O)[C@H](O)O[C@@H]2CO)[C@H](O)[C@@H](O)[C@@H]1O` [maltose] has an activity at 2000 µM [1] of 58% and an activity at 10000 µM ([1]; 10mM competitor) of 37%.

Source: patent publication US5981181A, “DNA sequences with oligosaccharide transporter, plasmids bacteria and plants containing a transporter as well as a process for the preparation and transformation of yeast strains for identification of the transporter” (Hoechst Schering AgrEvo GmbH, priority 1992, dated 1999)
